Source: patent publication US7704995B2 (Exelixis, Inc., priority 2003, dated 2010)
Read-outs that look alike come from different tables or passages of the source.

Target: T1, Chk1 (Homo sapiens, UniProt O14757)
T1 construct: purchased Upstate Biotechnology
T1 sequence (O14757 1-476): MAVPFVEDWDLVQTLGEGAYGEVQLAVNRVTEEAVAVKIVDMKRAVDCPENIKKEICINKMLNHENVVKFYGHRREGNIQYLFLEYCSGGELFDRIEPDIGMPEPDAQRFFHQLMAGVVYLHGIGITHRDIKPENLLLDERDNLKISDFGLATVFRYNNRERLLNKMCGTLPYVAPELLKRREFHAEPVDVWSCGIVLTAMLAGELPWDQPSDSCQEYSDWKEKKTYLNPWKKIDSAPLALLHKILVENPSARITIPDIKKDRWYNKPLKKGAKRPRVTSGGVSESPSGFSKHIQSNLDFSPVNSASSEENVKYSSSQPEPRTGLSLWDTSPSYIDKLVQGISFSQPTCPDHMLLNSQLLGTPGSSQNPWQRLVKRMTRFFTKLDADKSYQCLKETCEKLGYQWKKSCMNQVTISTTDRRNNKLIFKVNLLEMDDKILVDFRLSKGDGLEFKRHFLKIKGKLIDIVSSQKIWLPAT
Experiment: Chk1 kinase assay: incorporation of γ-33P ATP into immobilized myelin basic protein
Assay type: biochemical
Conditions: read-out: Chk1 IC50
Outline: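 Incorporation of γ-33P into myelin basic protein coated on plates was scintillation-counted after 1 h at room temperature, duplicate points. Unlabeled ATP was 10 μM with 10 nM Chk1, 30 μM with 20 nM Chk2; buffer Hepes pH 7.6, MgCl2, DTT, 1% DMSO. Output IC50, optionally converted to Ki.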

[1] = Table 11, Chk1 only, class symbols A-D

Row | Compound | IC50 [µM] | IC50 (Table 11, Chk1 only) [µM] | further results
1 | Nc1ncc(-c2cccc(CNC(=O)c3ccc(Cl)cc3)c2)nc1-c1nc([C@H]2CCCNC2)n[nH]1 [Example 941, N-{[3-(5-amino-6-{3-[(3S)-piperidin-3-yl]-1H-1,2,4-triazol-5-yl}pyrazin-2-yl)phenyl]methyl}-4-chlorobenzamide] |  |  | IC50 [1]: < 0.05 µM
2 | CNC(=O)c1nc(-c2cccc(CNCc3ccc(F)cc3F)c2)cnc1N [Example 387, 3-amino-6-[3-({[(2,4-difluorophenyl)methyl]amino}methyl)phenyl]-N-methylpyrazine-2-carboxamide] | < 0.05 |  | 
3 | CN(C)c1ccc(NC(=O)NCCNC(=O)c2nc(-c3cccc(C(=O)NCc4ccccc4)c3)cnc2N)cc1 [Example 691, 3-amino-N-{2-[({[4-(dimethylamino)phenyl]amino}carbonyl)amino]ethyl}-6-(3-{[(phenylmethyl)amino]carbonyl}phenyl)pyrazine-2-carboxamide] |  | ≥ 10 | 
4 | Nc1ncc(-c2cccc(C(=O)NCc3ccccc3)c2)nc1C(=O)NCCNC(=O)c1ccco1 [Example 659, 3-amino-N-{2-[(furan-2-ylcarbonyl)amino]ethyl}-6-(3-{[(phenylmethyl)amino]carbonyl}phenyl)pyrazine-2-carboxamide] |  | ≥ 10 | 
5 | N=C(NNc1ccccc1)c1nc(-c2cccc(C(=O)NCc3ccccc3)c2)cnc1N [Example 619, 3-{5-amino-6-[imino(2-phenylhydrazino)methyl]pyrazin-2-yl}-N-(phenylmethyl)benzamide] |  | 1 to 10 | 
6 | CNC(=O)c1nc(-c2ccc3ccccc3c2)cnc1N [Example 498, 3-amino-N-methyl-6-naphthalen-2-ylpyrazine-2-carboxamide] |  | 0.05 to 1 | 
7 | CCOC(=O)[C@H](Cc1ccc(O)cc1)NC(=O)c1nc(-c2cccc(C(=O)NCc3ccccc3)c2)cnc1N [Example 610, ethyl N-{[3-amino-6-(3-{[(phenylmethyl)amino]carbonyl}phenyl)pyrazin-2-yl]carbonyl}-L-tyrosinate] |  | ≥ 10 | 
8 | Nc1ncc(-c2cccc(C(=O)NCc3cc(Cl)cc(Cl)c3)c2)nc1C(=O)N[C@H]1CCCNC1 [Example 952, 3-amino-6-[3-({[(3,5-dichlorophenyl)methyl]amino}carbonyl)phenyl]-N-[(3S)-piperidin-3-yl]pyrazine-2-carboxamide] |  |  | IC50 [1]: < 0.05 µM
9 | Nc1ncc(-c2cccc(CN[C@H]3CCc4ccccc43)c2)nc1C(=O)c1ccccc1 [Example 546, [3-amino-6-(3-{[(1S)-2,3-dihydro-1H-inden-1-ylamino]methyl}phenyl)pyrazin-2-yl](phenyl)methanone] |  | 0.05 to 1 | 
10 | CNC(=O)c1nc(-c2cccc(C(=O)NCc3c(N)cccc3F)c2)cnc1N [Example 381, 3-amino-6-[3-({[(2-amino-6-fluorophenyl)methyl]amino}carbonyl)phenyl]-N-methylpyrazine-2-carboxamide] | 0.05 to 1 |  | 
11 | Nc1ncc(-c2cccc(CNC(=O)c3cncc(-c4cccs4)c3)c2)nc1C(=O)N[C@H]1CCCNC1 [Example 949, 3-amino-N-[(3S)-piperidin-3-yl]-6-{3-[({[5-(2-thienyl)pyridin-3-yl]carbonyl}amino)methyl]phenyl}pyrazine-2-carboxamide] |  |  | IC50 [1]: < 0.05 µM
12 | CNC(=O)c1nc(-c2cccc(C(=O)NNc3c(F)c(F)cc(F)c3F)c2)cnc1N [Example 434, 3-amino-N-methyl-6-(3-{[2-(2,3,5,6-tetrafluorophenyl)hydrazino]carbonyl}phenyl)pyrazine-2-carboxamide] |  | 0.05 to 1 | 
13 | CCn1nc(-c2nc(-c3cccc(C(=O)N[C@@H]4CCc5ccccc54)c3)cnc2N)nc1C1CCCNC1 (stereo partly drawn) [Example 734, 3-[5-amino-6-(1-ethyl-5-piperidin-3-yl-1H-1,2,4-triazol-3-yl)pyrazin-2-yl]-N-[(1R)-2,3-dihydro-1H-inden-1-yl]benzamide] |  | 0.05 to 1 | 
14 | CNC(=O)c1nc(-c2cccc(CN[C@H]3CCc4cc(Br)ccc4C3)c2)cnc1N [Example 462, 3-amino-6-[3-({[(2S)-6-bromo-1,2,3,4-tetrahydronaphthalen-2-yl]amino}methyl)phenyl]-N-methylpyrazine-2-carboxamide] |  | < 0.05 | 
15 | CNC(=O)c1nc(-c2cnc(N)c(C(=O)NC)n2)cnc1N [Example 266, 5,5′-diamino-N,N′-dimethyl-2,2′-bipyrazine-6,6′-dicarboxamide] | ≥ 10 |  | 
16 | CNC(=O)c1nc(-c2cccc(C(=O)NCC(C)C)c2)cnc1N [Example 217, 3-amino-N-methyl-6-(3-{[(2-methylpropyl)amino]carbonyl}phenyl)pyrazine-2-carboxamide] | 1 to 10 |  | 
17 | Nc1ncc(-c2cccc(CN[C@H]3CCc4ccccc43)c2)nc1C(=O)NC1CCCCNC1 (stereo partly drawn) [Example 947, 3-amino-N-azepan-3-yl-6-(3-{[(1S)-2,3-dihydro-1H-inden-1-ylamino]methyl}phenyl)pyrazine-2-carboxamide] |  |  | IC50 [1]: < 0.05 µM
18 | Nc1ncc(-c2cccc(CNC(=O)c3ccc(Br)cc3Cl)c2)nc1-c1nc([C@H]2CCCNC2)n[nH]1 [Example 945, N-{[3-(5-amino-6-{3-[(3S)-piperidin-3-yl]-1H-1,2,4-triazol-5-yl}pyrazin-2-yl)phenyl]methyl}-4-bromo-2-chlorobenzamide] |  |  | IC50 [1]: < 0.05 µM
19 | CCNC(=O)c1nc(-c2cccc(N)c2)cnc1N [Example 88, 3-amino-6-(3-aminophenyl)-N-ethylpyrazine-2-carboxamide] | 1 to 10 |  | 
20 | Nc1ncc(-c2cccc(C(=O)NCc3cccc(Cl)c3Cl)c2)nc1C(=O)N[C@H]1CCCNC1 [Example 1003, 3-amino-6-[3-({[(2,3-dichlorophenyl)methyl]amino}carbonyl)phenyl]-N-[(3S)-piperidin-3-yl]pyrazine-2-carboxamide] |  |  | IC50 [1]: < 0.05 µM
21 | CNC(=O)c1nc(-c2cccc(C(=O)N[C@H](C)c3ccc(OC)cc3)c2)cnc1N [Example 108, 3-amino-N-methyl-6-{3-[({(1R)-1-[4-(methyloxy)phenyl]ethyl}amino)carbonyl]phenyl}pyrazine-2-carboxamide] | 1 to 10 |  | 
22 | CNC(=O)c1nc(-c2cccc(CN3Cc4ccccc4C3)c2)cnc1N [Example 416, 3-amino-6-[3-(1,3-dihydro-2H-isoindol-2-ylmethyl)phenyl]-N-methylpyrazine-2-carboxamide] | 0.05 to 1 |  | 
23 | N=C(N)c1nc(-c2cccc(C(=O)N[C@H]3CCc4ccccc43)c2)cnc1N [Example 774, 3-{5-amino-6-[amino(imino)methyl]pyrazin-2-yl}-N-[(1S)-2,3-dihydro-1H-inden-1-yl]benzamide] |  | 1 to 10 | 
24 | Nc1ncc(-c2cccc(CO)c2)nc1-c1nnc(-c2ccccc2)[nH]1 [Example 551, {3-[5-amino-6-(5-phenyl-4H-1,2,4-triazol-3-yl)pyrazin-2-yl]phenyl}methanol] |  | 0.05 to 1 | 
25 | CNC(=O)c1nc(-c2cccc(CNC3CCc4ccc(F)cc43)c2)cnc1N (stereo not drawn) [Example 475, 3-amino-6-(3-{[(6-fluoro-2,3-dihydro-1H-inden-1-yl)amino]methyl}phenyl)-N-methylpyrazine-2-carboxamide] |  | < 0.05 | 
26 | Nc1ncc(-c2cccc(C(=O)NCc3ccc(Cl)cc3Cl)c2)nc1C(=O)N[C@H]1CCCNC1 [Example 832, 3-amino-6-[3-({[(2,4-dichlorophenyl)methyl]amino}carbonyl)phenyl]-N-[(3S)-piperidin-3-yl]pyrazine-2-carboxamide] |  |  | IC50 [1]: < 0.05 µM
27 | Nc1ncc(-c2cccc(C(=O)NCc3ccc(Cl)c(Cl)c3)c2)nc1-c1nc([C@H]2CCCNC2)n[nH]1 [Example 830, 3-(5-amino-6-{3-[(3S)-piperidin-3-yl]-1H-1,2,4-triazol-5-yl}pyrazin-2-yl)-N-[(3,4-dichlorophenyl)methyl]benzamide] |  |  | IC50 [1]: < 0.05 µM
28 | COCc1nnc(-c2nc(-c3cccc(CN[C@H]4CCc5ccccc54)c3)cnc2N)[nH]1 [Example 595, 5-(3-{[(1S)-2,3-dihydro-1H-inden-1-ylamino]methyl}phenyl)-3-{5-[(methyloxy)methyl]-4H-1,2,4-triazol-3-yl}pyrazin-2-amine] |  | 1 to 10 | 

Continued, in another order:

Row | IC50 [µM] | IC50 (Table 11, Chk1 only) [µM] | Compound | further results
29 | 0.05 to 1 |  | CNC(=O)c1nc(-c2cccc(C(=O)NCc3ccc4c(c3)NCCO4)c2)cnc1N [Example 380, 3-amino-6-(3-{[(3,4-dihydro-2H-1,4-benzoxazin-6-ylmethyl)amino]carbonyl}phenyl)-N-methylpyrazine-2-carboxamide] | 
30 | 0.05 to 1 |  | CNC(=O)c1nc(-c2cccc(C(=O)NCc3ccc(N4CCOCC4)cc3)c2)cnc1N [Example 343] | 
31 |  | ≥ 10 | Nc1ncc(-c2cccc(C(=O)NCc3ccccc3)c2)nc1C(=O)N1CCC(N)CC1 [Example 618, 3-{5-amino-6-[(4-aminopiperidin-1-yl)carbonyl]pyrazin-2-yl}-N-(phenylmethyl)benzamide] | 
32 | 0.05 to 1 |  | CNC(=O)c1nc(-c2cccc(C(=O)NCc3ccc(F)c(C)c3)c2)cnc1N [Example 299, 3-amino-6-[3-({[(4-fluoro-3-methylphenyl)methyl]amino}carbonyl)phenyl]-N-methylpyrazine-2-carboxamide] | 
33 | 0.05 to 1 |  | CNC(=O)c1nc(-c2cccc(C(=O)N[C@@H]3CCN(Cc4ccc(Cl)cc4Cl)C3)c2)cnc1N [Example 360, 3-amino-6-{3-[({(3R)-1-[(2,4-dichlorophenyl)methyl]pyrrolidin-3-yl}amino)carbonyl]phenyl}-N-methylpyrazine-2-carboxamide] | 
